Measured values taken from US12161719B2, “Method of enhancing the antimicrobial action of systemically administered antibiotics” (Koite Health Oy, priority 2019, dated 2024).

What was measured:
Type in all cases: cell-based
[1] = tested on: Streptococcus mutans biofilms; test: 1 day biofilm test with Azithromycine, Indocyanine Green and light; conditions: 15 μg with Indocyanine Green
Protocol: A further series of tests was carried out for Streptococcus mutans biofilms using Azithromycine (15 μg) and Indocyanine Green using light at 100 J/cm^2. For 1 day biofilms, the CFU was on an average <1 after treatment with dual light of 405 nm and 810 nm, respectively (at ratios of 3:1 to 1:3), whereas for either 405 nm or 810 nm wavelength light alone, the CFU was on an average below 100 after 1 day. For Azithromycine and Indocyanine Green without light, the CFU was about 1E06 to 1E07 after 1 day.

[2] = tested on: Streptococcus mutans 4 day biofilm; test: 4-day biofilm effectivity test, colony formation (CFU)
From the text: FIG. 3 is a bar chart showing a comparison of the doxycycline effect with light excitations of 405 nm, dual-light (810 nm & 405 nm) and 370 nm to Streptococcus mutans colony formation in 4 day biofilm model; FIG. 4 is a bar chart showing the doxycycline effect against Streptococcus mutans 4 day biofilm for light excitation using a combination of light of 405 nm and 810 nm (“dual-light”) together with an ICG sensitizer, compared with light of 810 nm together with an ICG sensitizer (“doxy+aPDT”) and with 405 nm light without ICG sensitizer (“405”). A control of doxycycline is given as a reference; and […] is a bar chart showing a comparison of doxycycline effect with light excitations of […] on Streptococcus mutans colony formation in a 4-day biofilm effectivity test. FIG. 4 gives the CFU:s for Streptococcus mutans colonies on petri dishes after 4-day treatments, repeated 6 times with identical treatment and growth parameters, for four series of tests. The first (non-existent) bar represents the CFU:s for S. mutans colonies doxycycline which had been treated with doxycycline (30 μg) and dual light of 405 nm and 810 nm together with Indocyanine Green. The energy intensity of the light was 100 J/cm^2. […]

[3] = tested on: planktonic Streptococcus mutans; test: Planktonic bacteria test, light activation of doxycycline
From the text: FIG. 2 is a bar chart showing bacteria growth of Streptococcus mutans for four different treatments, illustrating the effect of light activation of doxycycline against planktonic Streptococcus mutans; FIG. 2 is a bar chart showing light activation of doxycycline at 405 nm in a planktonic bacteria test. […] 100 J of antibacterial blue light had minor reduction in CFU compared to non-exposed control.

[4] = Antibiotic susceptibility test (doxycycline disc on petri dishes, with or without light)
From the text: Antibiotic Susceptibility Test Each test was repeated 3 times with identical treatment and growth parameters. The calculated CFU:s for 100 J/cm^2 treated doxycycline disc results are shown in table 1 and representing image of difference between treated and non-treated doxy petri dish are shown in FIG. 1. […] Starting from the left is the doxycycline inhibition effect in dark, in the middle the resulting petri dish with 405 nm and 810 nm exposure and on the right side the petri dish with 405 nm excitation is shown.

SMILES	CFU on an average ([1]; 405 nm light alone, 100 J/cm^2, 1 day)	CFU on an average ([1]; 810 nm light alone, 100 J/cm^2, 1 day)	CFU on an average ([1]; dual light 405 nm and 810 nm (ratios 3:1 to 1:3), 100 J/cm^2, 1 day biofilms)	improvement of antibacterial light effect with the addition of doxycycline ([2]; 370 nm light)	improvement of antibacterial light effect with the addition of doxycycline ([2]; 405 nm light)	bacteria growth ([3]; doxycycline without light)	bactericidal effect, bacteria killing ([3]; light activated at 405 nm)	Regression diameter ([4]; 44 J/cm^2 405 nm + 60 J/cm^2 810 nm)	Regression diameter ([4]; 83 J/cm^2 405 nm)	Regression diameter ([4]; no light, disc test, repeated 3 times)
CC[C@H]1OC(=O)[C@H](C)[C@@H](O[C@H]2C[C@@](C)(OC)[C@@H](O)[C@H](C)O2)[C@H](C)[C@@H](O[C@@H]2O[C@H](C)C[C@H](N(C)C)[C@H]2O)[C@](C)(O)C[C@@H](C)CN(C)[C@H](C)[C@@H](O)[C@]1(C)O [Azithromycine]	below 100	below 100	< 1	–	–	–	–	–	–	–
C[C@H]1c2cccc(O)c2C(=O)C2=C(O)[C@]3(O)C(=O)C(C(N)=O)=C(O)[C@@H](N(C)C)[C@@H]3[C@@H](O)[C@@H]21 [doxycycline]	–	–	–	over 1.5 log	over 1.5 log	≥ 10^7 CFU	over 3 log	29,66666667	30,33333	26,33333
